{"source": "patent US7544710B2", "about": "(Les Laboratoires Servier, priority 2002, dated 2009)", "tested_on": "animals", "experiment": "In vivo study with a different strontium salt (strontium chloride)", "data": [{"smiles": "[Cl-].[Cl-].[Sr+2]", "note": "[strontium chloride]", "values": [{"measurement": "superficial haemorrhagic lesions in the animals treated", "value": "very rapidly caused superficial haemorrhagic lesions"}]}]}
